Legend:
[1] = Acute toxicity; conditions: mouse, in vivo, ip; mice, intraperitoneal, mortality after 48 hours; read-out: DL50, acute toxicity
Description: The acute toxicity was determined by intraperitoneal administration of the test compounds to mice in increasing doses and determination of the mortality after 48 hours to determine the DL50 dose.

[2] = test system: mouse; experiment: Chimney Test (neurosedative activity); format: in vivo; conditions: ip, 0.5 h, mice, intraperitoneal, 30 minutes after administration, read-out: DE50, Chimney Test
Description: This test consisted of placing a mouse in the end of a glass tube 30 cm long with a diameter adapted to the size of the mouse. The tube was straightened vertically in a rapid manner with the head of the mouse at the base. The normal uprighting time for the mouse in the tube was less than 30 seconds. The test was conducted 30 minutes after intraperitoneal administration of the test product and the DE50 dose was determined and is reported in Table I.

[3] = test system: mouse; experiment: Traction Test (neurosedative activity); format: in vivo; conditions: ip, 0.5 h, mice, intraperitoneal, 30 minutes after administration, dose at which 50% of the animals do not reestablish themselves in 5 seconds, read-out: DE50, Traction Test
Text: This test consisted of suspending a mouse by the front paws from a horizontal metal wire and in a time of less than 5 seconds, the normal mouse will effect a reestablishment by managing to place at least one hind paw on the wire. […]

[4] = Antagonism to toxicity of amphetaminic compounds; format: in vivo; conditions: Mus musculus, ip; male mice, intraperitoneal 30 minutes before 15 mg/kg i.p. dexamphetamine sulfate; group mortality at 24 hours; read-out: DE50, Antagonism to toxicity of amphetamines
Description: C. Antagonism to toxicity of amphetaminic compounds
This test was determined on groups of 10 male mice in a crystallizer with a 20 cm diameter and a 9 cm height covered with a grill. The animals received an intraperitoneal injection of 15 mg/kg of dexamphetamine sulfate 30 minutes after intraperitoneal administration of the test product. The group mortality was counted 24 hours after the injection of dexamphetamine sulfate and the DE50 dose was determined.

[5] = Antagonism to stereotypes provoked by apomorphine; format: in vivo; conditions: Rattus norvegicus, ip; male rats, intraperitoneal 30 minutes before 1.5 mg intravenous apomorphine hydrochloride; read-out: DE50, antagonism to stereotypes provoked by apomorphine
Description: B. Antagonism to sterotypes provoked by apomorphine
(§1) This test used groups of 5 male rats in a test inspired by Janssen et al. [Arzn. Forsch., Vol. 15 (1965), p. 104-117 and Vol. 17 (1967), p. 841-854] with each rat in an individual grill cage. Each animal received an intravenous injection in the vein of the penis of 1.5 mg of apomorphine hydrochloride 30 minutes after intraperitoneal administration of the test compound. The animals, control and treated, were observed 1,5,10 and 15 minutes after the last injection and the stereotype movements of the buccal sphere were evaluated for their intensity on a scale of 0 to 3 as by Boissier et al. [Therapie., Vol. 25 (1970), p. 939-949]. The height of the test was determined and the DE50 dose was ascertained to be 10 mg/kg.

[6] = Antipsychotic activity, overall conclusion from the tests on the product of Example 2; conditions: in vivo
Description: This test consisted of using groups of 5 rats which were placed in individual grill cages. The rats received intraperitoneally 8 mg/kg of dexamphetamine sulfate 30 minutes after intraperitoneal administration of the test products and the test used controls and treated animals. The rating scale was that described by Halliwel et al. [Brit. J. Pharmacol., Vol. 23 (1964), p. 330-350] and the DE50 of the product was […].
as §1
(§2) This test was effected on dogs as reported by Chen et al. [J. Pharmac. exp. Therap. Vol. 93 (1950), p. 245-250]. […] The cross tests were repeated after 8 days on lots of 2 dogs and the DE50 dose was determined to be 0.005 mg/kg.

[7] = Antagonism to vomitting provoked by apomorphine; format: in vivo; conditions: Canis lupus familiaris, sc, 0.5 h; dogs, subcutaneous 30 minutes before 0.1 mg/kg s.c. apomorphine hydrochloride; vomitting counted over one half hour; read-out: DE50, antagonism to vomitting provoked by apomorphine
Description: C. Antagonism to vomitting provoked by apomorphine
as §2, with “245-250]. The test product was subcutaneously administered 30 minutes before subcutaneous administration of 0.1 mg/kg of apomorphine hydrochloride.” for “245-250].”

[8] = Cataleptic Power; format: in vivo, young rats; conditions: for cataleptic activity (in words): rat, in vivo
Description: D. Cataleptic Power This test is described by Boissier et al. [Therapie., Vol. 18 (1963), p. 1257-1277] and was effected on young rats by crossing the homolateral paws and noting the intensity of catalepsy. The test product was intraperitoneally administered and the DE50 was formed to be greater than 60 mg/kg.

[9] = listed as acid succinate of N-[β-(4'-(3"-indolyl)-piperidino)-ethyl]-4-fluoro-benzamide

Structure (SMILES)	LD50 at 48 h [1] [mg/kg]	ED50 [2] [mg/kg]	ED50 [3] [mg/kg]	ED50 [4] [mg/kg]	ED50 [5] [mg/kg]	antipsychotic activity (in words) [6]	antipsychotic activity (in words) [6, 9]	ED50 [7] [mg/kg]	ED50 ([8]; Rattus norvegicus, ip, young rats, intraperitoneal, crossing the homolateral paws, read-out: DE50, cataleptic power) [mg/kg]	cataleptic activity (in words) [8]	cataleptic activity (in words) [8, 9]
COc1ccc(S(N)(=O)=O)cc1C(=O)NCCN1CCC(c2c[nH]c3ccccc23)CC1 [Example 8, N-[β-(4'-(3"-indolyl)-piperidino)-ethyl]-2-methoxy-5-sulfamoyl-benzamide]	800	–	–	–	–	–	–	–	–	–	–
COc1ccc2c(C3CCN(CCNC(=O)c4ccc(F)cc4)CC3)c(C)[nH]c2c1 [Example 5, N-[β-(4'-(2"-methyl-6"-methoxy-3"-indolyl)-piperidino)-ethyl]-p-fluoro-benzamide]	400	17	25	3	–	–	–	–	–	–	–
COc1cc(F)ccc1C(=O)NCCN1CCC(c2c[nH]c3ccccc23)CC1 [Example 4, N-[β-(4'-(3"-indolyl)-piperidino)-ethyl]-p-fluoro-o-methoxy-benzamide]	> 800	4.5	8.5	0.35	–	–	–	–	–	–	–
O=C(NCCN1CCC(c2c[nH]c3ccccc23)CC1)c1ccc(F)cc1 [Example 2, N-[β-(4'-(3"-indolyl)-piperidino)-ethyl]-p-fluoro-benzamide acid succinate]	125	2	6.5	0.3	10	important antipsychotic activity	antipsychotic activity	0.005	> 60	practically devoid of cataleptigenic activity	without cataleptic properties
O=C(NCCN1CCC(c2c[nH]c3ccccc23)CC1)c1ccccc1 [Example 1, N-[β-(4'-(3"-indolyl)-piperidino)-ethyl]-benzamide]	300	7	18	3	–	–	–	–	–	–	–
O=C(NCCCN1CCC(c2c[nH]c3ccccc23)CC1)c1ccc(F)cc1 [Example 3, N-[γ-(4'-(3"-indolyl)-piperidino)-propyl]-p-fluorobenzamide]	60	5	20	8	–	–	–	–	–	–	–
COc1cc(N)c(Cl)cc1C(=O)NCCN1CCC(c2c[nH]c3ccccc23)CC1 [Example 7, N-[β-(4'-(3"-indolyl)-piperidino)-ethyl]-2-methoxy-4-amino-5-chloro-benzamide]	> 800	–	–	–	–	–	–	–	–	–	–

— patent US3950527A, “N-[ω-(4'-(3"-indolyl)-piperidino)-alkyl]-benzamides” (Roussel-UCLAF, priority 1974, dated 1976)
